Data on one molecule can be found in US20040106104A1, “Viral envelope mediated fusion assay” (priority 2002, published 2004).

The test system of one experiment is HIV envelope 93US157. Put plainly: TOPO cell mediated fusion assay, clinical envelope 93US157. It counts as cell-based. The following applies: clinical envelope 93US157, source PBMC; read-out: BMS-806 EC50 TOPO Fusion.
The next experiment relates to HIV 92US072 whole virus. In words: Whole virus assay, 92US072. It counts as cell-based. As to conditions: 92US072, source PBMC; read-out: BMS-806 EC50 Whole Virus.
A further experiment concerns HIV envelope 92US072. Put plainly: TOPO cell mediated fusion assay, clinical envelope 92US072. It counts as cell-based. The following applies: clinical envelope 92US072, source PBMC; read-out: BMS-806 EC50 TOPO Fusion.
The subject of another experiment is HIV NL4-3 envelope. In words: TOPO cell mediated fusion assay, NL4-3 envelope. Type of experiment: cell-based. As to conditions: envelope NL4-3; linear envelope expression element; Hela H1 effector and target cells, luciferase; read-out: BMS-806 EC50 TOPO Cell Fusion.
A further experiment concerns HIV envelope BRH04820. In words: TOPO cell mediated fusion assay, clinical envelope BRH04820. Type of experiment: cell-based. The following applies: clinical envelope BRH04820, source serum; read-out: BMS-806 EC50 TOPO Fusion.
In the next experiment the test system is HIV LAI whole virus. Put plainly: Whole virus assay, LAI. The following applies: read-out: BMS-806 EC50 Whole Virus. Type of experiment: cell-based.
In a further experiment the test system is HIV 93US157 whole virus. In words: Whole virus assay, 93US157. Type of experiment: cell-based. The following applies: 93US157, source PBMC; read-out: BMS-806 EC50 Whole Virus.
A further experiment has as its system HIV envelope BRH04821. Put plainly: TOPO cell mediated fusion assay, clinical envelope BRH04821. It counts as cell-based. As to conditions: clinical envelope BRH04821, source serum; read-out: BMS-806 EC50 TOPO Fusion.
A further experiment concerns HIV NL4-3 whole virus. In words: Whole virus assay, NL4-3. Type of experiment: cell-based. The following applies: read-out: BMS-806 EC50 Whole Virus.
In another experiment the test system is HIV BRH04820 whole virus. Put plainly: Whole virus assay, BRH04820. Type of experiment: cell-based. The following applies: BRH04820, source serum; read-out: BMS-806 EC50 Whole Virus.
For another experiment, the target named is HIV LAI envelope (Human immunodeficiency virus type 1 group M subtype B, UniProt P03377). As to conditions: read-out: BMS-806 EC50 TOPO Cell Fusion, linear envelope expression element, Hela H1 effector and target cells, luciferase.
In the next experiment the test system is HIV BRH04821 whole virus. Put plainly: Whole virus assay, BRH04821. It counts as cell-based. As to conditions: BRH04821, source serum; read-out: BMS-806 EC50 Whole Virus.

Protocol for HIV LAI envelope: (§1) Preparation of Linear HIV Envelope Expression Element HIV viral RNA was isolated from 140 μl culture supernatant using a QIAamp Viral RNA Mini Kit (Qiagen Inc). The viral RNA was eluted in 60 μl of elution buffer. First strand cDNA was synthesized using the SuperScript First-Strand Synthesis system for RT-PCR (Invitrogen Corporation) using 8 μl of viral RNA and random hexamers according to the manufactures instructions. The HIV envelope gene was PCR amplified using 4 μl of first strand CDNA, primers BF17 5′-[sequence]-3′ and ENV-N 5′-[sequence]-3′ and a Platimun Taq DNA Polymerase High Fidelity Kit (Invitrogen) in a 100 μl reaction. The PCR product was purified using a QIAquick PCR Purification Kit (Qiagen Inc, Valencia, Calif.). In order to introduce the proper ends for the TOPO reaction 1 μl of the first PCR reaction was PCR amplified using primers:
(§2) in 100 μl as before. The PCR reaction was run on a 0.7% agarose gel and the about 3 kb HIV envelope gene was gel purified using a QIAquick Gel Extraction KIT (Qiagen Inc). The 5′ CMV promoter element and 3′ SV40 polyadenylation element were added to 700 ng of the HIV envelope PCR fragment using a TOPO Tools Kit (Invitrogen) and the final PCR product was purified as before. […]
Protocol for HIV NL4-3 envelope: as §1, §2
Protocol for HIV envelope 92US072: (§3) The effector cells were prepared by transfecting 1.7×10^6 Hela H1 cells in a T75 flask with the linear viral envelope expression element and pTET-Off using a Lipofectamine Plus Kit (Invitrogen) as follows. 3 μg of the linear envelope expression vector and 3 μg of pTET-OFF were mixed with 750 μl of D-MEM media. 49 μl of Plus Reagent was added to the DNA mixture, the solution was mixed. After 15 minutes at room temperature a solution consisting of 750 μl D-MEM and 30 μl of lipofectamine was added to the DNA solution. The solution was mixed and incubated at room temperature for 15 minutes. The media from 1.7×10^6 Hela H1 cells ion a T75 flask was removed, the cells were washed with 15 ml of D-PBS, and 6 ml of D-MEM without serum was added to the cells. The DNA/lipofectamine solution was mixed, added to the cells and the cells were then incubated at 37° C. in the presence of 5% CO2. After 4 hours, the transfection mixture was removed and replaced with 15 ml of D-MEM 10% FBS and incubated overnight at 37° C. in the presence of 5% CO2.
(§4) Preparation of Target Cells Hela H1 cells expressing CD4, CXCR4, CCR5, and containing an integrated copy of a TRE/luciferase reporter gene were used as target cells. These cells were maintained in DMEM containing 10% FBS, 0.2 mg/ml G418, 0.4 mg/ml zeocin, 0.1 mg/ml hygromycin B, and 1.5 μg/ml puromycin. […]
Protocol for HIV envelope 93US157: as §3, §4
Protocol for HIV envelope BRH04820: as §3, §4
Protocol for HIV envelope BRH04821: as §3, §4

Broadly, the EC50 is the concentration at which the effect is half-maximal. On to `COc1ccnc2[nH]cc(C(=O)C(=O)N3CCN(C(=O)c4ccccc4)C[C@H]3C)c12` [BMS-806], for which the half-maximal effective concentration (EC50) with HIV envelope 93US157 stood at 2.3 nM; with HIV 92US072 whole virus it was 336 nM; with HIV envelope 92US072, 818 nM; with HIV NL4-3 envelope it was 5.7 nM; in the experiment with HIV envelope BRH04820 it was 5.5 nM; in the experiment on HIV LAI whole virus it was 2.5 nM. The EC50 in the experiment with HIV 93US157 whole virus came to 3.9 nM; with HIV envelope BRH04821 it was 2.7 nM; in the experiment on HIV NL4-3 whole virus, 2.1 nM; in the experiment on HIV BRH04820 whole virus, 5.5 nM; on HIV LAI envelope it was 3.5 nM; with HIV BRH04821 whole virus it was 5.3 nM.
